According to PMC6044720 (ACS Omega, 2018):

How the values were obtained:
[1] = test system: Swiss albino mice; experiment: Formalin-induced hyperalgesia; format: in vivo; details: for number of flinching in the inflammatory phase compared to control group: 10 mg kg^–1 i.p.; for inhibition in vivo at 10 mg/kg: Mus musculus, ip, read-out: % inhibition of algesia (analgesic effect), 10 mg kg^–1 i.p. 30 min before formalin, Swiss albino mice
[2] = Solubility observations; format: physicochemical; details: enzyme immunoassay medium, in words
[3] = target: COX-1 (Homo sapiens, UniProt P23219); experiment: Human whole blood COX-1 assay: calcium ionophore; format: cell-based; details: for effect on ionophore-stimulated TXB2 production: 1 μM, in words; for TXB2, +calcium ionophore: compound final concn 1 μM, control 2.00
[4] = target: T1, COX-2 (Homo sapiens, UniProt P35354); experiment: Human whole blood COX-2 assay: LPS-stimulated PGE2 production; format: cell-based; details: for effect on PGE2 production in LPS-stimulated blood: 1 μM, in words; for PGE2, +LPS: compound final concn 1 μM, control 1.98
T1 sequence (P35354 18-604): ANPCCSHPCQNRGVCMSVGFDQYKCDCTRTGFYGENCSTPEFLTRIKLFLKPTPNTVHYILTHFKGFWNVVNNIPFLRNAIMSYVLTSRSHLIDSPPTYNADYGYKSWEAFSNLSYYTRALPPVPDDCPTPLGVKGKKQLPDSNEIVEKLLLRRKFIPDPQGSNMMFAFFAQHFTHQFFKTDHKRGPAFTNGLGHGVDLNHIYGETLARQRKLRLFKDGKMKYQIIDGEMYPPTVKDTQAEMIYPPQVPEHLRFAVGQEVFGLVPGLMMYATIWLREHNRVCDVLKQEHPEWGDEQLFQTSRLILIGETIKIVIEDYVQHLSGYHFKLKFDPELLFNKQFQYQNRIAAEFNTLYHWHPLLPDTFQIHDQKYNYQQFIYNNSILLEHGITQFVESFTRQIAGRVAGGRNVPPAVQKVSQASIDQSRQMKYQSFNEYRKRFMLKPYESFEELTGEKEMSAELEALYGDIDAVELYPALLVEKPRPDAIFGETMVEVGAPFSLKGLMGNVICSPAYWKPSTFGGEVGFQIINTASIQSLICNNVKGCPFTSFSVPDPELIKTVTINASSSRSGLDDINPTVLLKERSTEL

[5] = test system: Swiss albino mice; experiment: Carrageenan-induced paw inflammation; format: in vivo; details: for paw thickness compared to untreated control group: carrageenan, in words
[6] = test system: Swiss albino mice; experiment: Acute oral toxicity, 14 days; format: in vivo
[7] = In vivo pharmacokinetic study; design: species or system rat
[8] = target: T1, COX-2; experiment: Isothermal titration calorimetry with COX-2; format: binding; details: phosphate buffer pH 7.4
[9] = male wistar rat, 10 mg kg^–1 i.p.
[10] = male, Wistar, rat, serum, ip, 10 mg/kg

Sequence of COX-1 (P23219 24-599): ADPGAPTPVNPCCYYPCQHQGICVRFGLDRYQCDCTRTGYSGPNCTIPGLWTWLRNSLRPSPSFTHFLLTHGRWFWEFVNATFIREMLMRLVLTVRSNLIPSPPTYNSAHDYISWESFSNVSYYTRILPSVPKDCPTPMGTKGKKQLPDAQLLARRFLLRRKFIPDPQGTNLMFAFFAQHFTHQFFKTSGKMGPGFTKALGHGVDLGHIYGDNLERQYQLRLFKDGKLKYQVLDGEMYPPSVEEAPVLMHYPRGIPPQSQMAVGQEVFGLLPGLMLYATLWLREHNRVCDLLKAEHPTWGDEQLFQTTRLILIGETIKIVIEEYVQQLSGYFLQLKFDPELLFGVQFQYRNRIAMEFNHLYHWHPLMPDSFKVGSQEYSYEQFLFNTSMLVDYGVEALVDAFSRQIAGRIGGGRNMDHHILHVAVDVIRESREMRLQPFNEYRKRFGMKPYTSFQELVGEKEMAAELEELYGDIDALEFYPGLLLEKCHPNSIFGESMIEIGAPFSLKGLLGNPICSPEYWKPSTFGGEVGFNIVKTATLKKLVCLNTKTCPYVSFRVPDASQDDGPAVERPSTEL

| Compound | number of flinching in the inflammatory phase compared to control group ([1]; in words) | inhibition in vivo at 10 mg/kg [1] [%] | effect on ionophore-stimulated TXB2 production [3] | TXB2, +calcium ionophore [3] [ng/mL] | effect on PGE2 production in LPS-stimulated blood [4] | PGE2, +LPS [4] [ng/mL] | other results |
| --- | --- | --- | --- | --- | --- | --- | --- |
| O=Cc1cn(-c2nc(N3CCOCC3)nc(N3CCOCC3)n2)c2ccccc12 [Compound 2, 1-(4,6-Dimorpholino-1,3,5-triazin-2-yl)-1H-indole-3-carbaldehyde] | significantly decreased | 57.4 | – | – | – | – | – |
| O=C1/C(=C\c2cn(-c3nc(N4CCOCC4)nc(N4CCOCC4)n3)c3ccccc23)c2ccccc2N1c1c(Cl)cccc1Cl [Compound 3, (Z)-1-(2,6-Dichlorophenyl)-3-((1-(4,6-dimorpholino-1,3,5-triazin-2-yl)1H-indolyl)methylene)indolin-2-one] | significantly decreased | 55.6 | – | – | – | – | – |
| O=C1Nc2ccccc2/C1=C/c1cn(-c2nc(N3CCOCC3)nc(N3CCOCC3)n2)c2ccccc12 [Compound 4, (Z)-3-((1-(4,6-Dimorpholino-1,3,5-triazin-2-yl)-1H-indol-3-yl)methylene)indolin-2-one] | significantly decreased | 61.3 | – | – | – | – | – |
| CN1C(=O)C(=Cc2cn(-c3nc(N4CCOCC4)nc(N4CCOCC4)n3)c3ccccc23)C(=O)N(C)C1=O [Compound 5, 1,3-Dimethyl-5-((1-(4,6-dimorpholino-1,3,5-triazin-2-yl)-1H-indol-3-yl)methylene)pyrimidine-2,4,6(1,3,5H)-trione] | – | – | – | – | – | – | solubility in the assay medium [2]: poor solubility |
| CC1=NN(c2cccc(Cl)c2)C(=O)/C1=C\c1cn(-c2nc(N3CCOCC3)nc(N3CCOCC3)n2)c2ccccc12 [Compound 6, (4Z)-1-(3-Chlorophenyl)-3-methyl-4-((1-(4,6-dimorpholino-1,3,5-triazin-2-yl)-1H-indol-3-yl)methylene)-1H-pyrazol-5(4H)-one] | significantly decreased | – | did not affect | 1.85 | significantly decreased | 0.91 | analgesic effect on A23187 pretreatment ([1]; TXA2 stimulator A23187, in words): did not alter; analgesic effect on pretreatment with L-arginine or L-NAME ([1]; given 30 min before compound, in words): did not alter; analgesic effect on pretreatment with substance P ([1]; substance P 30 min before compound, in words): significantly attenuated; decrease in paw thickness ([5]; 30 min after carrageenan): 18%; decrease in paw thickness ([5]; 60 min after carrageenan): 14%; paw thickness compared to untreated control group [5]: decrease the paw thickness significantly; mortality or gross behavioral impairment ([6]; 50, 300 and 2000 mg kg^–1, after the 14th day): no mortality or any gross behavioral impairment; maximum tolerable dose ([6]; Swiss albino mice): > 2000 mg kg^–1; tissue histology (liver, kidney, myocardium) ([6]; after 14 days, H and E staining): no significant lesions except for some degree of congestion; toxicity ([6]; dose of 2000 mg kg^–1): did not exhibit toxicity; Cl/F_obs [7, 9]: 0.0008011 (mg)/(μg/mL)/min; Vz/F_obs [7, 9]: 0.3796 (mg)/(μg/mL); Cmax [7, 10]: 58.5 µg/mL; MRT inf [7, 10]: 8.16 h; Tmax [7, 10]: 3 h; k el [7, 10]: 3.52e-05 s⁻¹; half-life ([7]; male, Wistar, rat, serum, ip, 10 mg/kg, half-life, male wistar rat, 10 mg kg^–1 i.p.): 5.5 h; half-life ([7]; male, Wistar, rat, serum, ip, 10 mg/kg, t1/2, male wistar rat, 10 mg kg^–1 i.p.): 5.47 h; ΔH COX-2 (ITC) [8]: -9.685 kcal/mol |
| O=C1Nc2ccccc2/C1=C/c1cn(-c2nc(N3CCCCC3)nc(N3CCOCC3)n2)c2ccccc12 [Compound 10, (Z)-3-((1-(4-Morpholino-6-(piperidin-1-yl)-1,3,5-triazin-2-yl)-1H-indol-3-yl)methylene)indolin-2-one] | significantly decreased | 54.9 | did not affect | 1.55 | significantly decreased | 1.02 | – |
| CC1=NN(c2cccc(Cl)c2)C(=O)/C1=C\c1cn(-c2nc(N3CCCCC3)nc(N3CCOCC3)n2)c2ccccc12 [Compound 12, (Z)-1-(3-Chlorophenyl)-3-methyl-4-((1-(4-morpholino-6-(piperidin-1-yl)-1,3,5-triazin-2-yl)-1H-indol-3-yl)methylene)-1H-pyrazol-5(4H)-one] | significantly decreased | 74.2 | did not affect | 1.75 | significantly decreased | 0.95 | paw thickness compared to untreated control group [5]: decrease the paw thickness significantly |
| CC1=NN(c2cccc(Cl)c2)C(=O)/C1=C\c1cn(-c2nc(N3CCCC3)nc(N3CCOCC3)n2)c2ccccc12 [Compound 17, (Z)-1-(3-Chlorophenyl)-3-methyl-4-((1-(4-morpholino-6-(pyrrolidin-1-yl)-1,3,5-triazin-2-yl)-1H-indol-3-yl)methylene)-1H-pyrazol-5(4H)-one] | significantly decreased | – | did not affect | 1.70 | significantly decreased | 1.00 | – |
| CC1=NN(c2cccc(Cl)c2)C(=O)/C1=C\c1cn(-c2nc(Cl)nc(N3CCOCC3)n2)c2ccccc12 [Compound 18, (Z)-4-((1-(4-Chloro-6-morpholino-1,3,5-triazin-2-yl)-1H-indol-3-yl)methylene)-1-(3-chlorophenyl)-3-methyl-1H-pyrazol-5(4H)-one] | significantly decreased | 59 | – | – | – | – | – |
| CC1=NN(c2cccc(Cl)c2)C(=O)/C1=C\c1cn(-c2nc(N3CCCCC3)nc(N3CCCCC3)n2)c2ccccc12 [Compound 22, (Z)-1-(3-Chlorophenyl)-4-((1-(4,6-di(piperidin-1-yl)-1,3,5-triazin-2-yl)-1H-indol-3-yl)methylene)-3-methyl-1H-pyrazol-5(4H)-one] | significantly decreased | 61.9 | – | – | – | – | – |
| O=C(O)Cc1ccccc1Nc1c(Cl)cccc1Cl [Diclofenac, reference compound] | significantly decreased | – | – | – | – | – | – |
| COc1ccc2c(c1)c(CC(=O)O)c(C)n2C(=O)c1ccc(Cl)cc1 [Indomethacin, reference compound] | – | – | – | – | – | – | decrease in paw thickness ([5]; 30 min after carrageenan): 30%; decrease in paw thickness ([5]; 60 min after carrageenan): 25%; paw thickness compared to untreated control group [5]: decrease the paw thickness significantly |
